Source: patent US20250040543A1, “Preservative Composition” (ARXADA AG, priority 2021, published 2025)

How the values were obtained:
[1] = system: Escherichia coli; assay: MIC and Synergy Index (Kull) of two-component compositions; type: cell-based
Procedure: (§1) A wide range of concentrations were tested against Pseudomonas aeruginosa, Staphylococcus aureus, Escherichia coli, and Candda albicans.
(§2) The lowest concentration of each mixture or single compound which prevents an observable level of growth was determined to be the minimum inhibitory concentration (MIC) value.
(§3) Serial dilutions of each mixture or single compound were prepared. Micro-organisms were inoculated into media: Nutrient Broth (bacteria) or Malt Extract Broth (yeast). The final concentrations of micro-organisms in media was approximately 10^5-6 CFU/ml. The inoculated media was introduced to each of the serial dilutions at a 1:1 ratio, and incubated at 30±1° C. for 24-48 hours.
(§4) The MICs for each mixture was compared with the MIC of each single compound alone.
(§5) Synergy was determined using the Kull equation (F. C. Kull et. al., “Mixtures of Quaternary Ammonium Compounds and Long-chain Fatty Acids as Antifungal Agents”, Appl Microbiol. 1961 November; 9(6): 538-541), which calculates a Synergy Index (SI) according the following equation:
(§6) [formula] • wherein • QA=concentration of compound A in ppm, acting alone produced an end point, • Qa=concentration of compound A in ppm, in the mixture, which produced an end point, • QB=concentration of compound B in ppm, acting alone produced an end point, and • Qb=concentration of compound B in ppm, in the mixture, which produced an end point;
(§7) In this study the end point is measured by the MIC.

[2] = system: Staphylococcus aureus; assay: as above; type: cell-based; details: Staphylococcus aureus, butyl levulinate alone, or its concentration in the mixture with Sodium benzoate; read-out: MIC (ppm) to inhibit growth: Butyl levulinate
Procedure: as §1, §2, §3, §4, §5, §6, §7

[3] = system: Pseudomonas aeruginosa; assay: as above; type: cell-based
Procedure: as §1, §2, §3, §4, §5, §6, §7

[4] = system: C. albicans; assay: Preservation efficacy test in sterile distilled water, drop plate; type: cell-based, Candida albicans; details: 7 days, pH 7, Potassium Sorbate 0 ppm
Procedure: Yeast strains were harvested and prepared in diluent (sterile distilled water) to obtain a final concentration of 1.0×10^5 to 1.0×10^6 cfu/ml.
Preservation efficacy testing started at Day 0 (t=0). Each sample was inoculated at t=0 with a known concentration of micro-organism. Each inoculated sample was then mixed until a homogenous mixture was obtained. Inoculated samples were stored in the dark at 22.5±2.5° C. throughout the test period.
At the specified contact time of 7 days (t=7), test samples were deactivated by adding a 0.1 ml aliquot of the test sample to 0.9 ml of an appropriate neutralising broth. The solution was left for 15 minutes. Subsequent dilutions were prepared by serial dilution of 0.1 ml into 0.9 ml of neutralising broth. Bacteria were serially diluted to 10^−4, Fungi were serially diluted to 10^−3.
Each serial dilution was thoroughly mixed and 25 μl drops were aliquoted onto the surface of pre-prepared agar plates. Plates were prepared in sextupicate for each sample dilution.
The agar plates were allowed to dry, then inverted and incubated under conditions appropriate for the test microorganisms.
CFU/ml was calculated taking into account dilution factors. Colonies from the incubated plates were enumerated using the lower count limit of <10 CFU/ml and the upper count limit of >330 CFU/ml.
The lower and upper limits for drop plating were only employed on the highest and lowest dilution factor plates.
The test organisms were prepared and the method was performed according to the protocol of Example 1.

[5] = system: Pseudomonas aeruginosa ATCC 9027; assay: as above; type: cell-based; details: 7 days
Procedure: In the following example, the following test organisms were used: • Pseudomonas aeruginosa ATCC 9027 • Aspergillus brasiliensis ATCC 16404 [table] Bacteria were harvested and prepared in diluent (sterile distilled water) to obtain a final concentration of 1.0×10^6 to 5.0×10^6 cfu/ml. [table] […] Each sample was inoculated at t=0 with a known concentration of micro-organism. Each inoculated sample was then mixed until a homogenous mixture was obtained. […] The solution was left for 15 minutes. Subsequent dilutions were prepared by serial dilution of 0.1 ml into 0.9 ml of neutralising broth. Bacteria were serially diluted to 10^−4, Fungi were serially diluted to 10^−3. Each serial dilution was thoroughly mixed and 25 μl drops were aliquoted onto the surface of pre-prepared agar plates. Plates were prepared in sextupicate for each sample dilution. The agar plates were allowed to dry, then inverted and incubated under conditions appropriate for the test microorganisms. CFU/ml was calculated taking into account dilution factors. […] The lower and upper limits for drop plating were only employed on the highest and lowest dilution factor plates.

In the case of `CCCCOC(=O)CCC(C)=O` [Butyl Levulinate, butyl levulinate], the MIC ([1]; Escherichia coli, butyl levulinate alone, or its concentration in the mixture with Sodium benzoate, read-out: MIC (ppm) to inhibit growth: Butyl levulinate) is reported as 3120 µg/mL, the “MIC (ppm) to inhibit growth: Butyl levulinate” value (“MIC (ppm) to inhibit growth” below) ([1]; butyl levulinate alone, or its concentration in the mixture with DHA) is reported as 3125 ppm and the MIC [2] is reported as 25000 µg/mL. For the same compound, the MIC ([3]; Pseudomonas aeruginosa, butyl levulinate alone, or its concentration in the mixture with Lactic Acid, read-out: MIC (ppm) to inhibit growth: Butyl levulinate) was 6250 µg/mL, the “MIC (ppm) to inhibit growth” value ([3]; butyl levulinate alone, or its concentration in the mixture with MGDA) was 6250 ppm and the “MIC (ppm) to inhibit growth” value ([3]; butyl levulinate alone, or its concentration in the mixture with Sodium pyrithione) was 6250 ppm. For the same compound, the Log reduction ([4]; Butyl Levulinate 500 ppm) was 0.11, the Log reduction ([4]; Butyl Levulinate 1000 ppm) was 0.22 and the Log reduction ([4]; Butyl Levulinate 1500 ppm) was 0.11. It also gave a Log reduction ([4]; Butyl Levulinate 2000 ppm) of −0.11, a Log reduction ([4]; Butyl Levulinate 2500 ppm) of 0.18 and a Log reduction ([5]; pH 7, Butyl Levulinate 500 ppm, Potassium Sorbate 0 ppm) of less than 0.03. The Log reduction ([5]; pH 7, Butyl Levulinate 1000 ppm, Potassium Sorbate 0 ppm) was less than 0.03, the Log reduction ([5]; pH 7, Butyl Levulinate 1500 ppm, Potassium Sorbate 0 ppm) was less than 0.03 and the Log reduction ([5]; pH 7, Butyl Levulinate 1500 ppm, Sodium Benzoate 0 ppm) was less than 0.38. The Log reduction ([5]; pH 7, Butyl Levulinate 2000 ppm, Potassium Sorbate 0 ppm) was less than 0.03, the Log reduction ([5]; pH 7, Butyl Levulinate 2000 ppm, Sodium Benzoate 0 ppm) was less than 0.38 and the Log reduction ([5]; pH 7, Butyl Levulinate 2500 ppm, Potassium Sorbate 0 ppm) was less than 0.03. It also gave a Log reduction ([5]; pH 7, Butyl Levulinate 2500 ppm, Sodium Benzoate 0 ppm) of less than 0.38, a Log reduction ([5]; pH 8, Butyl Levulinate 500 ppm, Potassium Sorbate 0 ppm) of less than 0.33 and a Log reduction ([5]; pH 8, Butyl Levulinate 500 ppm, Sodium Benzoate 0 ppm) of less than 0.05. It also gave a Log reduction ([5]; pH 8, Butyl Levulinate 1000 ppm, Potassium Sorbate 0 ppm) of less than 0.33, a Log reduction ([5]; pH 8, Butyl Levulinate 1000 ppm, Sodium Benzoate 0 ppm) of less than 0.05 and a Log reduction ([5]; pH 8, Butyl Levulinate 1500 ppm, Potassium Sorbate 0 ppm) of less than 0.33. The Log reduction ([5]; pH 8, Butyl Levulinate 1500 ppm, Sodium Benzoate 0 ppm) was less than 0.05, the Log reduction ([5]; pH 8, Butyl Levulinate 2000 ppm, Potassium Sorbate 0 ppm) was less than 0.33 and the Log reduction ([5]; pH 8, Butyl Levulinate 2000 ppm, Sodium Benzoate 0 ppm) was less than 0.05. The Log reduction ([5]; pH 8, Butyl Levulinate 2500 ppm, Potassium Sorbate 0 ppm) was less than 0.33 and the Log reduction ([5]; pH 8, Butyl Levulinate 2500 ppm, Sodium Benzoate 0 ppm) was less than 0.05.
